The values that follow come from ChEMBL document CHEMBL2203080, “Synthesis and biological evaluation of colchicine C-ring analogues tethered with aliphatic linkers suitable for prodrug derivatisation” (Bioorg Med Chem Lett, 2012).

Usually IC50 stands for the concentration that gives 50% inhibition.

For one assay, the system named is DLD-1. The assay is described as follows: Cytotoxicity against human DLD1 cells assessed as growth inhibition. The assay is classed as functional, cell-based.
Assay [1] deals with HeLa. The assay is described as follows: Cytotoxicity against human HeLa cells assessed as growth inhibition. Format: functional, cell-based.
Assay [2] has as its system A2780. As to the kind of experiment: Cytotoxicity against human A2780 cells assessed as growth inhibition. Format: functional, cell-based.
Assay [3] in a line: Cytotoxicity against multidrug-resistant human A2780AD cells overexpressing p-gp assessed as growth inhibition. The note with it: A2780 ADR. The assay is classed as functional, cell-based.
Assay [4] concerns A2780. As to the kind of experiment: Resistance factor, ratio of IC50 for multidrug-resistant human A2780AD cells overexpressing p-gp to IC50 for human A2780 cells. The assay is classed as functional.
The test system of assay [5] is HeLa. The assay is described as follows: Resistance factor, ratio of IC50 for human HeLa cells harboring class 3 beta tubulin mutant to IC50 for human HeLa cells. The assay is classed as functional.
Assay [6] concerns HeLa. As to the kind of experiment: Cytotoxicity against human HeLa cells harboring class 3 beta tubulin mutant assessed as growth inhibition. The assay is classed as functional, cell-based.

Molecules are shown by their SMILES.

On to `COc1cc2c(c(OC)c1OC)-c1ccc(NCCN)c(=O)cc1[C@@H](NC(C)=O)CC2`, for which the IC50 with DLD-1 was found to be 900 nM.

Turning to `COc1cc2c(c(OC)c1OC)-c1ccc(NCCCCCCN)c(=O)cc1[C@@H](NC(C)=O)CC2`, the IC50 in the assay with DLD-1 was more than 10000 nM.

Regarding `CNCCNc1ccc2c(cc1=O)[C@@H](NC(C)=O)CCc1cc(OC)c(OC)c(OC)c1-2`, the IC50 is 130 nM in the assay on DLD-1; 586 nM in the assay on HeLa [1]; 502 nM in the assay on A2780 [2]; 784 nM in assay [3]; 554 nM in the assay with HeLa [6]. The “Ratio IC50” value in the assay on A2780 [4] is given as 1.6; with HeLa [5], 0.95.

With `COc1cc2c(c(OC)c1OC)-c1ccc(NCCO)c(=O)cc1[C@@H](NC(C)=O)CC2`, the IC50 in the assay with DLD-1 stood at 69.2 nM; with HeLa [1], 192 nM; in the assay with A2780 [2], 71.1 nM; in assay [3], 241 nM; with HeLa [6], 164 nM. Besides, the “Ratio IC50” value in the assay with A2780 [4] was 3.3; with HeLa [5], 0.85.

Take `COc1cc2c(c(OC)c1OC)-c1ccc(NCCN(C)C(=O)OC(C)(C)C)c(=O)cc1[C@@H](NC(C)=O)CC2`: the IC50 with DLD-1 was more than 10000 nM.

For the compound `COc1cc2c(c(OC)c1OC)-c1ccc(NCCN3CCC[C@@H]3CO)c(=O)cc1[C@@H](NC(C)=O)CC2`, the IC50 in the assay on DLD-1 is more than 10000 nM.

With `COc1cc2c(c(OC)c1OC)-c1ccc(NCCN3CCC[C@H]3CO)c(=O)cc1[C@@H](NC(C)=O)CC2`, in the assay with DLD-1, the IC50 is more than 10000 nM.

Turning to `COc1cc2c(c(OC)c1OC)-c1ccc(NCCCCCCN3CCCC(O)C3)c(=O)cc1[C@@H](NC(C)=O)CC2` (mixture of isomers), the IC50 in the assay with DLD-1 was more than 10000 nM.

For the compound `COc1cc2c(c(OC)c1OC)-c1ccc(NCCN3CCCC(O)C3)c(=O)cc1[C@@H](NC(C)=O)CC2` (mixture of isomers), the IC50 with DLD-1 amounted to 8100 nM.

In the case of `COc1cc2c(c(OC)c1OC)-c1ccc(OC)c(=O)cc1[C@@H](NC(C)=O)CC2` [COLCHICINE], the IC50 is 45.5 nM with DLD-1; 8.2 nM with HeLa [1]; 6.7 nM in the assay on A2780 [2]; 16.8 nM in assay [3]; 9.7 nM with HeLa [6]. In addition, the “Ratio IC50” value in the assay with A2780 [4] was 2.5; in the assay with HeLa [5], 1.2.

Take `CC(=O)O[C@H]1C(=O)[C@@]2(C)[C@H]([C@H](OC(=O)c3ccccc3)[C@]3(O)C[C@H](OC(=O)[C@H](O)[C@@H](NC(=O)c4ccccc4)c4ccccc4)C(C)=C1C3(C)C)[C@]1(OC(C)=O)CO[C@@H]1C[C@@H]2O` [PACLITAXEL]: the values for the IC50 (in the assay with A2780 [2]; in assay [3]; in the assay with HeLa [6]) were 1100 nM, more than 1000 nM and 11.2 nM, respectively.
